Experimental data from US8134015B2, “Compound inhibiting in vivo phosphorous transport and medicine containing the same” (Kyowa Hakko Kirin Co., Ltd., priority 2003, dated 2012).
Structures can show the parent of a compound that is named as a salt.

What follows are molecules tested against T1, rat NaPi-2b (Rattus norvegicus, UniProt Q9JJ09) (assay: Sodium-dependent phosphate uptake of Xenopus oocytes which expressed NaPi-2b (32P)). Details: Xenopus oocytes expressing rat NaPi-2b, 32P radioactive phosphorus; read-out: IC50 (phosphate uptake inhibitory activity).
T1 construct: expressed in transfected cells; host or cells: Xenopus oocytes injected with cRNA
T1 sequence (Q9JJ09 1-695): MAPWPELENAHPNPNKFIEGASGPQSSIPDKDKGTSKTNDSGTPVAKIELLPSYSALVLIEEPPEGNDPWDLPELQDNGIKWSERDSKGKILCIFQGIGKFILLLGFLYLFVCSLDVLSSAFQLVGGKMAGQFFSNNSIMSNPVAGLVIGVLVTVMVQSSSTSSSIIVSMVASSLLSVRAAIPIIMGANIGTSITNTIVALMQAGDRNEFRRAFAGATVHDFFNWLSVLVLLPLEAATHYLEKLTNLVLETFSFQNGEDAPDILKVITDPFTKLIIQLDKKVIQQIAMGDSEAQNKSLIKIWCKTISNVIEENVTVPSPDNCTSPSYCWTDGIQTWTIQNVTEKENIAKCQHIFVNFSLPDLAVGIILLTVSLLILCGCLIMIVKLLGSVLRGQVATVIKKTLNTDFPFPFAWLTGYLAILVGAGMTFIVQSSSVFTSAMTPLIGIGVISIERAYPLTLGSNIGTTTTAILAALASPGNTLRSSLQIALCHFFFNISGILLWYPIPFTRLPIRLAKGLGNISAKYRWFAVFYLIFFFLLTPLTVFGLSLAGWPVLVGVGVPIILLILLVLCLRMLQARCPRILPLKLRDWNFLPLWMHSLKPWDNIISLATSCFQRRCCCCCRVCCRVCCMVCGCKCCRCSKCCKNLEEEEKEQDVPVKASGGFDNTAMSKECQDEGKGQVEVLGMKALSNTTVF
Assay type: cell-based
Procedure, shortened: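 Oocytes injected with rat NaPi-2b cRNA, cultured 2 d, then 32P uptake measured with compound. Values: % inhibition at 300 and 100 μM, both from one inhibition curve.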

SMILES	IC50
CCN(CC)CCN(C)Cc1cccc(C(=O)Nc2c(C)csc2C(=O)N/N=C/c2ccc(C)c(C)c2)c1 [Compound 342, 3-{[(2-Diethylamino-ethyl)-methyl-amino]-methyl}-N-[2-(3,4-dimethyl-benzylidene-hydrazinocarbonyl)-4-methyl-thiophen-3-yl]-benzamide]	32.6 µM
CCN(CC)CCN(C)Cc1cccc(C(=O)Nc2c(C)csc2C(=O)N/N=C/c2ccc(C)cc2)c1 [Compound 343, 3-{[(2-Diethylamino-ethyl)-methyl-amino]-methyl}-N-[4-methyl-2-(4-methyl-benzylidene-hydrazinocarbonyl)-thiophen-3-yl]-benzamide]	124 µM
CCN(CC)CCN(C)Cc1cccc(C(=O)Nc2c(C)csc2C(=O)N/N=C/c2ccc(Cl)c(C(F)(F)F)c2)c1 [Compound 344, N-[2-(4-Chloro-3-trifluoromethyl-benzylidene-hydrazinocarbonyl)-4-methyl-thiophen-3-yl]-3-{[(2-diethylamino-ethyl)-methyl-amino]-methyl}-benzamide]	31 µM
Cc1ccc(/C=N/NC(=O)c2scc(C)c2NC(=O)c2cccc(CN3CCC(N4CCCCC4)CC3)c2)cc1C [Compound 345, 3-[1,4′]Bipiperidinyl-1′-ylmethyl-N-[2-(3,4-dimethyl-benzylidene-hydrazinocarbonyl)-4-methyl-thiophen-3-yl]-benzamide]	130 µM
O=C(Nc1ccc(Br)cc1C(=O)N/N=C/C=C/c1ccccc1)c1cccnc1 [Compound 346, N-[4-Bromo-2-(3-phenyl-allylidene-hydrazinocarbonyl)-phenyl]-nicotinamide]	4.46 µM
O=C(Nc1ccc(Br)cc1C(=O)N/N=C/C=C/c1ccccc1)c1ccncc1 [Compound 347, N-[4-Bromo-2-(3-phenyl-allylidene-hydrazinocarbonyl)-phenyl]-isonicotinamide]	4.91 µM
O=C(Nc1ccc(Cl)cc1C(=O)N/N=C/C=C/c1ccccc1)c1cccnc1 [Compound 348, N-[4-Chloro-2-(3-phenyl-allylidene-hydrazinocarbonyl)-phenyl]-nicotinamide]	16.6 µM
O=C(Nc1ccc(Cl)cc1C(=O)N/N=C/C=C/c1ccccc1)c1ccncc1 [Compound 349, N-[4-Chloro-2-(3-phenyl-allylidene-hydrazinocarbonyl)-phenyl]-isonicotinamide]	8.78 µM
O=C(Nc1ccc(Br)cc1C(=O)N/N=C/c1cccc(OCCO)c1)c1ccncc1 [Compound 350, N-{4-Bromo-2-[3-(2-hydroxy-ethoxy)-benzylidene-hydrazinocarbonyl]-phenyl}-isonicotinamide]	25.3 µM
O=C(Nc1ccc(Cl)cc1C(=O)N/N=C/c1cccc(OCCO)c1)c1ccncc1 [Compound 351, N-{4-Chloro-2-[3-(2-hydroxy-ethoxy)-benzylidene-hydrazinocarbonyl]-phenyl}-isonicotinamide]	8.96 µM
COc1ccccc1/C=C/C=N/NC(=O)c1cc(Br)ccc1NC(=O)c1cccnc1 [Compound 352, N-{4-Bromo-2-[3-(2-methoxy-phenyl)-allylidene-hydrazinocarbonyl]-phenyl}-nicotinamide]	13 µM
COc1ccccc1/C=C/C=N/NC(=O)c1cc(Br)ccc1NC(=O)c1ccncc1 [Compound 353, N-{4-Bromo-2-[3-(2-methoxy-phenyl)-allylidene-hydrazinocarbonyl]-phenyl}-isonicotinamide]	8.85 µM
COc1ccccc1/C=C/C=N/NC(=O)c1cc(Cl)ccc1NC(=O)c1cccnc1 [Compound 354, N-{4-Chloro-2-[3-(2-methoxy-phenyl)-allylidene-hydrazinocarbonyl]-phenyl}-nicotinamide]	1.54 µM
Cc1ccc(/C=N/NC(=O)c2cc(Br)ccc2NC(=O)c2ccccn2)cc1 [Compound 356, Pyridin-2-carboxylic acid [4-bromo-2-(4-methyl-benzylidene-hydrazinocarbonyl)-phenyl]-amide hydrochloride]	0.17 µM
CN(C)c1ccc(/C=C/C=N/NC(=O)c2ccccc2NC(=O)c2cccnc2)cc1 [Compound 358, N-{2-[3-(4-Dimethylamino-phenyl)-allylidene-hydrazinocarbonyl]-phenyl}-nicotinamide]	54.1 µM
O=C(Nc1ccc(Cl)cc1C(=O)N/N=C/c1cccc(F)c1)c1ccccn1 [Compound 359, Pyridin-2-carboxylic acid [4-chloro-2-(3-fluoro-benzylidene-hydrazinocarbonyl)-phenyl]-amide]	7.1 µM
O=C(Nc1ccc(Cl)cc1C(=O)N/N=C/c1ccc(F)cc1)c1ccccn1 [Compound 360, Pyridin-2-carboxylic acid [4-chloro-2-(4-fluoro-benzylidene-hydrazinocarbonyl)-phenyl]-amide]	0.63 µM
Cc1cccc(/C=N/NC(=O)c2cc(Cl)ccc2NC(=O)c2ccccn2)c1 [Compound 361, Pyridin-2-carboxylic acid [4-chloro-2-(3-methyl-benzylidene-hydrazinocarbonyl)-phenyl]-amide]	< 1 µM
Cc1ccc(/C=N/NC(=O)c2cc(Cl)ccc2NC(=O)c2ccccn2)cc1 [Compound 362, Pyridin-2-carboxylic acid [4-chloro-2-(4-methyl-benzylidene-hydrazinocarbonyl)-phenyl]-amide]	< 1 µM
Cc1ccc(/C=N/NC(=O)c2cc(Cl)ccc2NC(=O)c2ccccn2)cc1C [Compound 363, Pyridin-2-carboxylic acid [4-chloro-2-(3,4-dimethyl-benzylidene-hydrazinocarbonyl)-phenyl]-amide]	< 1 µM
O=C(Nc1ccc(Cl)cc1C(=O)N/N=C/c1ccc(Cl)c(C(F)(F)F)c1)c1ccccn1 [Compound 364, Pyridin-2-carboxylic acid [4-chloro-2-(4-chloro-3-trifluoromethyl-benzylidene-hydrazinocarbonyl)-phenyl]-amide]	< 1 µM
COc1ccc(C(=O)Nc2ccc(Br)cc2C(=O)NNCc2ccc(C)cc2)cc1OC [Compound 367, N-{4-Bromo-2-[N′-(4-methyl-benzyl)-hydrazinocarbonyl]-phenyl}-3,4-dimethoxy-benzamide]	6.88 µM
O=C(Nc1ccc(Cl)cc1C(=O)N/N=C/c1cccc(F)c1)c1cccc(CN2CCC(N3CCCCC3)CC2)c1 [Compound 368, 3-[1,4′]Bipiperidinyl-1′-ylmethyl-N-[4-chloro-2-(3-fluoro-benzylidene-hydrazinocarbonyl)-phenyl]-benzamide]	1.37 µM
O=C(Nc1ccc(Cl)cc1C(=O)N/N=C/c1ccc(F)cc1)c1cccc(CN2CCC(N3CCCCC3)CC2)c1 [Compound 369, 3-[1,4′]Bipiperidinyl-1′-ylmethyl-N-[4-chloro-2-(4-fluoro-benzylidene-hydrazinocarbonyl)-phenyl]-benzamide]	1.45 µM
Cc1cccc(/C=N/NC(=O)c2cc(Cl)ccc2NC(=O)c2cccc(CN3CCC(N4CCCCC4)CC3)c2)c1 [Compound 370, 3-[1,4′]Bipiperidinyl-1′-ylmethyl-N-[4-chloro-2-(3-methyl-benzylidene-hydrazinocarbonyl)-phenyl]-benzamide]	1.86 µM
Cc1ccc(/C=N/NC(=O)c2cc(Cl)ccc2NC(=O)c2cccc(CN3CCC(N4CCCCC4)CC3)c2)cc1 [Compound 371, 3-[1,4′]Bipiperidinyl-1′-ylmethyl-N-[4-chloro-2-(4-methyl-benzylidene-hydrazinocarbonyl)-phenyl]-benzamide]	2.54 µM
O=C(Nc1ccc(Cl)cc1C(=O)N/N=C/c1ccc(Cl)c(C(F)(F)F)c1)c1cccc(CN2CCC(N3CCCCC3)CC2)c1 [Compound 373, 3-[1,4′]Bipiperidinyl-1′-ylmethyl-N-[4-chloro-2-(4-chloro-3-trifluoromethyl-benzylidene-hydrazinocarbonyl)-phenyl]-benzamide]	1.68 µM
COc1cccc(/C=N/NC(=O)c2cc(Cl)ccc2NC(=O)c2cccc(CN3CCC(N4CCCCC4)CC3)c2)c1 [Compound 374, 3-[1,4′]Bipiperidinyl-1′-ylmethyl-N-[4-chloro-2-(3-methoxy-benzylidene-hydrazinocarbonyl)-phenyl]-benzamide]	9.25 µM
COc1ccc(/C=N/NC(=O)c2cc(Cl)ccc2NC(=O)c2cccc(CN3CCC(N4CCCCC4)CC3)c2)cc1 [Compound 375, 3-[1,4′]Bipiperidinyl-1′-ylmethyl-N-[4-chloro-2-(4-methoxy-benzylidene-hydrazinocarbonyl)-phenyl]-benzamide]	24.7 µM

Same assay, conditions: phosphate uptake, oocytes expressing rat NaPi-2b; 300 μM, determined from inhibition curve

SMILES	inhibition at 300 µM
Cc1cccc(/C=N/NC(=O)c2cc(Br)ccc2NC(=O)c2ccc(CSc3cccc(F)c3)cc2)c1 [Compound 357, N-[4-Bromo-2-(3-methyl-benzylidene-hydrazinocarbonyl)-phenyl]-4-(3-fluoro-phenylsulfanylmethyl)-benzamide]	65.8%
Cc1ccc(CNNC(=O)c2cc(Cl)ccc2NC(=O)c2cccc(CSc3ccncc3)c2)cc1C [Compound 366, N-{4-Chloro-2-[N′-(3,4-dimethyl-benzyl)-hydrazinocarbonyl]-phenyl}-3-(pyridin-4-ylsulfanylmethyl)-benzamide]	69.9%
